Patent publication US4127687A, “Prevention of fouling of marine structures such as boat hulls” (Rohm and Haas Company, priority 1976, dated 1978)
Converted amounts (≈) assume the structure as drawn. “And” between values parts separate entries of the source, which are not always exact repeats. Equal values may be shown once.

Tests used:
barnacle = test: Membrane Diffusion Raft Trials, barnacle control; format: in vivo, barnacles; conditions: membrane test, average 15 to 16 weeks of immersion
Text: (§1) 1). FIELD TESTS: - Membrane Diffusion Raft Trials
(§2) A specially constructed raft provides three types
(§3) a). Waterline Well illuminated, aerated
(§4) b). Flats Poorly illuminated deeper
(§5) A known quantity of the test compound is placed into a cylindrical plastic container whose open end is then covered with a membrane of known porosity; the complete unit is attached to the appropriate raft panel so that the poison can freely diffuse into the free water layer around it. Regular inspections, recording time and quantity of settlement, allow a life history of each membrane trial to be constructed. Each raft panel contains 35 compounds to be evaluated together with 4 standard poisons and 1 non-toxic membrane for control.
(§6) The behavior on the raft can thus be compared with that of the standard poisons and the non-toxic control. At normal loading a membrane over the standard poisons would be free from macro-fouling after six months immersion. Compounds showing selective effects against restricted groups of fouling organisms also show up by membrane testing.
(§7) After the completion of membrane tests the contents of all containers are checked visually for poison loss. An empty container indicates an unacceptably high solubility for long term effectiveness; where the poison loss is low the compound is tested in one of two ways depending on its performance against fouling.
(§8) In the membrane tests, the results of approximately 140 compounds evaluated appear in Table 1. The symbols "0" means no detactable effect, the symbol "+" indicates the compound is active against the given fouling organism, and the symbol "++" means that the compound appears to be effective over at least about a four month period for essentially preventing fouling activity by the given organism. In the Table, "weed" designates a grass-like algal growth common in sea water.
(§9) Membrane Test results are of an average 15 to 16 weeks of immersion,
(§10) ^a 0 = none, + = some, + + = effective.
^f The 1975 Spring settlement of barnacles was very meager and the […]

[1] = Amount of toxicant remaining in the test container after membrane diffusion raft tests; format: physicochemical; parameters: key: 0: empty or trace; +: some; + +: ample; conditions: after completion of membrane diffusion raft tests
Text: as §5, §7
^b Amount of toxicants remaining in the test container after the
completion of the membrane diffusion raft tests: 0 = empty or trace, + =

weed = test: Membrane Diffusion Raft Trials, weed control; format: in vivo, grass-like algal growth common in sea water; conditions: membrane test, average 15 to 16 weeks of immersion
Text: as §1, §2, §3, §4, §5, §6, §7, §8, §9, §10

[2] = Water solubility by UV spectrophotometric method; format: physicochemical; conditions: for solubility: water, saturated solution, Table 1, read-out: Solubility by UV method
Procedure: The water solubilities of several isothiazolones were determined by UV spectrophotometric measurements of saturated aqueous solution of each compound in comparison with measurement of solutions of carefully prepared known concentration as outlined in the following example.
DETERMINATION OF SOLUBILITY OF 5-CHLORO-2-(4-FLUOROPHENYL)-4-METHYL-3-ISOTHIAZOLONE OF EXAMPLE 115
A sample of 5-chloro-2-(4-fluorophenyl)-4-methyl-3-isothiazolone (0.0406 g., 1.67 × 10^-4 mole) was dissolved in 50 ml. of methanol. A 5 ml. aliquot of the solution was diluted to 1000 ml. with deionized water, providing a solution of 1.67 × 10^-5 moles/liter concentration. An ultraviolet spectrum of this solution was run using a 10 cm. cell. The absorbance (As) at the wave length of maximum absorption (279 nm.) was 1.208. The molar absorptivity, AM, was calculated from the relationship
where b and c are path length or cell thickness and concentration respectively. Thus, AM was [formula]
Another sample of the compound (0.3-0.5 g.) was stirred vigorously in 40 ml. of deionized water for approximately 72 hrs. to give a saturated solution. The mixture was filtered through very fine filter paper (Whatman No. 50) to remove all suspended solid. Small portions of the filtrate were diluted with water by various factors until an approximately mid-scale absorbance was obtained upon running an ultraviolet spectrum. Such an absorbance was obtained at a dilution of 10. The absorbance was 0.975 in a 10 cm. cell. Using the value for AM obtained earlier, in the equation

Row | Structure (SMILES) | Barnacle Control (barnacle) | Contents at the end of test (amount of toxicants remaining in the test container) [1] | Weed Control (weed) | solubility [2] [µg/mL] | solubility thermodynamic at 72 h ([2]; deionized water, stirred approximately 72 hrs., UV, read-out: concentration of the saturated solution) | solubility at 72 h ([2]; deionized water, stirred approximately 72 hrs., UV, read-out: solubility of this compound) [µg/mL]
1 | CCCCCCCCCCCCCCCCCCn1sccc1=O [Example 8] | 0 | + + | 0 | – | – | –
2 | O=c1ccsn1CCc1ccc(Cl)cc1 [Example 9] | 0 | 0 | 0 | – | – | –
3 | O=c1ccsn1-c1ccccc1 [Example 11] | 0 | 0 | 0 | – | – | –
4 | CCCCCCC(C)n1sc(Cl)cc1=O (stereo not drawn) [Example 18] | – | – | – | 175 (≈ 706 µM) | – | –
5 | CC(C)CCCC(C)n1sc(Cl)cc1=O (stereo not drawn) [Example 19] | – | – | – | 190 (≈ 767 µM) | – | –
6 | CCC(C)CC(CC)n1sc(Cl)cc1=O (stereo not drawn) [Example 20] | – | – | – | 300 (≈ 1210 µM) | – | –
7 | CC(C)(C)CC(C)(C)n1sc(Cl)cc1=O [Example 21] | – | – | – | 200 (≈ 807 µM) | – | –
8 | CCCCCCCCCCCCCCn1sc(Cl)cc1=O [Example 24] | + + | + + | 0 | – | – | –
9 | CCCCCCCCCCCCCCCCn1sc(Cl)cc1=O [Example 25] | 0 | + + | 0 | – | – | –
10 | CC1CC(n2sc(Cl)cc2=O)CC(C)(C)C1 (stereo not drawn) [Example 28] | – | – | – | 185 (≈ 712 µM) | – | –
11 | CC(c1ccccc1)n1sc(Cl)cc1=O (stereo not drawn) [Example 30] | – | – | – | 420 (≈ 1750 µM) | – | –
12 | O=c1cc(Cl)sn1Cc1ccccc1 [Example 31] | – | – | – | 390 (≈ 1730 µM) | – | –
13 | O=c1cc(Cl)sn1-c1ccc(Cl)c(Cl)c1 [Example 37] | + | + + | + | – | – | –
14 | O=c1cc(Cl)sn1-c1ccc(Cl)c(C(F)(F)F)c1 [Example 40] | 0 | + + | + | – | – | –
15 | O=c1c(Cl)csn1Cc1ccc(Cl)cc1 [Example 46] | 0 | + + | + | – | – | –
16 | CCCCCCCCCCCCn1scc(Br)c1=O [Example 50] | + | + + | 0 | – | – | –
17 | O=c1c(Br)csn1CCc1ccccc1 [Example 52] | 0 | + | 0 | – | – | –
18 | O=c1c(Br)csn1-c1ccc(Cl)cc1 [Example 54] | 0 | + + | 0 | – | – | –
19 | CCCCCCC(C)n1sc(Cl)c(Cl)c1=O (stereo not drawn) [Example 60] | – | – | – | 50 (≈ 177 µM) | – | –
20 | CC(C)CCCC(C)n1sc(Cl)c(Cl)c1=O (stereo not drawn) [Example 61] | – | – | – | 55 (≈ 195 µM) | – | –
21 | CCC(C)CC(CC)n1sc(Cl)c(Cl)c1=O (stereo not drawn) [Example 62] | – | – | – | 85 (≈ 301 µM) | – | –
22 | CC1CC(n2sc(Cl)c(Cl)c2=O)CC(C)(C)C1 (stereo not drawn) [Example 68] | – | – | – | 45 (≈ 153 µM) | – | –
23 | CC(c1ccccc1)n1sc(Cl)c(Cl)c1=O (stereo not drawn) [Example 70] | – | – | – | 50 (≈ 182 µM) | – | –
24 | O=c1c(Cl)c(Cl)sn1-c1cccc(Cl)c1 [Example 76] | 0 | + + | + | – | – | –
25 | O=c1c(Cl)c(Cl)sn1-c1cc(Cl)cc(Cl)c1 [Example 77] | 0 | + + | 0 | – | – | –
26 | Cc1ccc(-n2sc(Cl)c(Cl)c2=O)cc1Cl [Example 81] | 0 | + + | 0 | – | – | –

Row | Structure (SMILES) | Barnacle Control (barnacle) | Contents at the end of test (amount of toxicants remaining in the test container) [1] | Weed Control (weed) | solubility [2] [µg/mL] | solubility thermodynamic at 72 h ([2]; deionized water, stirred approximately 72 hrs., UV, read-out: concentration of the saturated solution) | solubility at 72 h ([2]; deionized water, stirred approximately 72 hrs., UV, read-out: solubility of this compound) [µg/mL]
27 | O=c1c(Cl)c(Cl)sn1-c1ccc([N+](=O)[O-])cc1 [Example 82] | 0 | + + | 0 | – | – | –
28 | CCCCc1ccc(-n2sc(Cl)c(Cl)c2=O)cc1 [Example 83] | + | + + | 0 | – | – | –
29 | CCCCCCCCCCn1sc(Cl)c(Br)c1=O [Example 89] | 0 | + + | 0 | – | – | –
30 | O=c1c(Br)c(Cl)sn1C1CCCCC1 [Example 90] | – | – | – | 45 (≈ 152 µM) | – | –
31 | O=c1c(Br)c(Cl)sn1CCc1ccc(Cl)cc1 [Example 92] | 0 | + | 0 | – | – | –
32 | Cn1sc(Br)c(Br)c1=O [Example 94] | 0 | 0 | + | – | – | –
33 | CCCCCCCCCCn1sc(Br)c(Br)c1=O [Example 96] | 0 | + + | 0 | – | – | –
34 | CCCCCCCCCCCCn1sc(Br)c(Br)c1=O [Example 97] | 0 | + + | 0 | – | – | –
35 | Cc1c(Cl)sn(C)c1=O [Example 100] | 0 | 0 | 0 | – | – | –
36 | CCCCCCCCn1sc(Br)c(C)c1=O [Example 102] | + | 0 | + | – | – | –
37 | CCCCC(CC)Cn1sc(Cl)c(C)c1=O (stereo not drawn) [Example 103] | – | – | – | 102 (≈ 390 µM) | – | –
38 | CCCCCCCCCCCCn1sc(Cl)c(C)c1=O [Example 105] | + | + + | 0 | – | – | –
39 | CCCCCCCCCCCCCCn1sc(Cl)c(C)c1=O [Example 106] | 0 | + + | 0 | – | – | –
40 | Cc1c(Cl)sn(-c2ccccc2Cl)c1=O [Example 112] | – | – | – | 23 (≈ 88.4 µM) | – | –
41 | Cc1c(Cl)sn(-c2ccc(F)cc2)c1=O [Example 115, 5-chloro-2-(4-fluorophenyl)-4-methyl-3-isothiazolone] | – | – | – | 35 (≈ 144 µM) | 135 µM and 32.8 µg/mL | 33 (≈ 135 µM)
42 | Cc1c(Cl)sn(-c2ccc(Br)cc2)c1=O [Example 116] | – | – | – | 7 (≈ 23 µM) | – | –
43 | Cc1ccc(-n2sc(Cl)c(C)c2=O)cc1 [Example 120] | – | – | – | 60 (≈ 250 µM) | – | –
44 | Cc1c(Cl)sn(-c2ccc(Oc3ccccc3)cc2)c1=O [Example 124] | 0 | + + | 0 | – | – | –
45 | Cc1c(Cl)sn(-c2cccc(C(F)(F)F)c2)c1=O [Example 129] | – | – | – | 12 (≈ 40.9 µM) | – | –
46 | Cc1c(Cl)sn(-c2ccc(C(F)(F)F)cc2)c1=O [Example 130] | – | – | – | 7 (≈ 23.8 µM) | – | –
47 | Cc1c(Cl)sn(-c2ccc(Cl)c(C(F)(F)F)c2)c1=O [Example 131] | 0 | + + | 0 | – | – | –
48 | Cc1cc(-n2sc(Cl)c(C)c2=O)ccc1Br [Example 133] | 0 | + + | 0 | – | – | –
49 | Cc1c(Cl)sn(-c2ccc(Cl)cc2Cl)c1=O [Example 135] | – | – | – | 4 (≈ 13.6 µM) | – | –
50 | Cc1c(Cl)sn(-c2cc(Cl)cc(Cl)c2)c1=O [Example 136] | – | – | – | 3 (≈ 10.2 µM) | – | –
51 | Cc1csn(-c2cccc(Cl)c2)c1=O [Example 138] | 0 | + + | + | – | – | –
52 | Cc1csn(-c2ccc(Cl)c(Cl)c2)c1=O [Example 140] | 0 | + + | 0 | – | – | –
